Among the data in the SangsterLogP compilation are logD and logP values, retold here.

Series [1] in a line: method code SF-AS, from DOI: 10.1002/ps.2780370107. The conditions noted are these: pH 0.0.
Assay in series [2]: not given
This is another data set of the same source.

Assay in series [3]: not given
This is another data set of the same source.

Series [4] is described as follows: method code SF-HPLC, from DOI: 10.1124/dmd.30.12.1497, PMID: 12433825. The conditions noted are these: pH 7.4.
Series [5] can be described thus: method code SF-AS, from DOI: 10.1007/bf01067967, PMID: 3820093. The conditions noted are these: pH 7.5.
Assay in series [6]: not given
This is another data set of the same source.

The nature of series [7]: method code SF-CR+AS, from Korenman, I.; Tishchenko, M.; Kombarova, A. (1977). Distribution of dihydroxynaphthalenes between higher alcohols and water. Zh. Prikl. Khim., 50(4)899-901. The conditions noted are these: pH 2.0.
A short description of series [8]: method code SF-AS, from PMID: 6692390. The note with it: pH 4.0.
Series [9] can be described thus: method code SF, from DOI: 10.1016/0021-9673(91)85016-9. The note with it: pH 7.0.
Assay in series [10]: not given
This is another data set of the same source.

A short description of series [11]: method code SF-HPLC, from DOI: 10.1021/jm00109a018, PMID: 2033591. The note with it: pH 7.0.
A short description of series [12]: method code SF-HPLC, from DOI: 10.1016/j.bmc.2011.10.084, PMID: 22130421. The note with it: pH 7.4.
Assay in series [13]: not given
The source holds these as a separate data set.

The nature of series [14]: method code SF-CR+AS, from Korenman, I.; Lineva, S.; Gezikova, N. (1978). Extraction of naphthol-sulfonic acids from aqueous solution. Zh. Prikl. Khim., 51(4)869-871.
Series [15] in a line: method code G-HPLC, from DOI: 10.6028/nbs.ir.81-2406.
Series [16] in a line: method code SF-HPLC, from PMID: 1293941.
Series [17] in a line: method code SF, from PMID: 23342302. The conditions noted are these: pH 7.4.
Assay in series [18]: not given
This is another data set of the same source.

Series [19] can be described thus: method code SF-AS, from DOI: 10.1021/es00082a014. The conditions noted are these: pH 7.0.
Series [20] in a line: method code SF-AS, from DOI: 10.1016/s0021-9673(01)87148-x, PMID: 1744207. The note with it: pH 3.4.
Series [21] is described as follows: method code SF, from DOI: 10.1021/jm00010a006, PMID: 7752187.
Assay in series [22]: not given
This is another data set of the same source.

Assay in series [23]: not given
This is another data set of the same source.

The nature of series [24]: method code SF, from DOI: 10.1016/0006-2952(79)90429-5, PMID: 444298.
Assay in series [25]: not given
This is another data set of the same source.

The nature of series [26]: method code SF-CR, from DOI: 10.1042/bj1780443, PMID: 109087. The conditions noted are these: pH 7.4.
A short description of series [27]: method code SF, from DOI: 10.1515/bc.2002.085, PMID: 12108546.
The nature of series [28]: method code SF-AS, from DOI: 10.5012/bkcs.2007.28.7.1183.
The nature of series [29]: method code SF, from Zheng, Y.; Wu, F.; Li, Y. (2001). Determination of ionization constant and partition coefficient of monoxidine. Journal of Shenyang Pharmaceutical University, 18(1)37-39.
The nature of series [30]: method code SF-AS, from DOI: 10.2307/3575639, PMID: 7313077. The conditions noted are these: pH 7.4.
Assay in series [31]: not given
The source holds these as a separate data set.

A short description of series [32]: method code …, from Wang, X.; Song, H. (1996). Determination of octanol-water partition coefficients of organic pollutants by using the dynamic coupled-column liquid chromatographic technique. Transactions of Tianjin ….
Series [33] can be described thus: method code SF-GLC, from DOI: 10.1016/0147-6513(82)90020-3, PMID: 7106034.
Assay in series [34]: not given
This is another data set of the same source.

Series [35] can be described thus: method code SF-AS, from DOI: 10.1016/0304-4165(70)90354-5, PMID: 5474547. The note with it: pH 7.4.
Series [36] in a line: from Bundgaard, H.; Hansen, A.; Larsen, C. (1979). Prodrugs as drug delivery systems. VII. Rapid cyclization of methyldiethylthiomalonurate to thiobarbital in aqueous solution. Archiv der Pharmazie - …. The conditions noted are these: pH 3.5.
A short description of series [37]: method code SF-AS, from Korenman, Y.; Pazynin, T. (1972). Distribution of nitrosonaphthols between organic solvents and water. J. anal. chem. USSR, 27(4)723-725. The note with it: pH 2.0.
Series [38] in a line: method code SF, from DOI: 10.1021/jm00217a007, PMID: 17751. The note with it: pH 9.0.
A short description of series [39]: method code SF-AS, from DOI: 10.1021/jm00069a002, PMID: 8355246. The note with it: pH 7.4.
The nature of series [40]: method code SF-HPLC, from DOI: 10.1248/bpb.16.154, PMID: 8364451.
The nature of series [41]: method code SF-RC, from DOI: 10.1021/jm070791g.s001, PMID: 17960926.
A short description of series [42]: method code SF-GLC, from DOI: 10.1007/bf00212402, PMID: 7663085.
Series [43] is described as follows: method code SF-AS, from DOI: 10.1016/s0378-5173(98)00405-0, PMID: 10089287. The note with it: pH 7.4.
The nature of series [44]: method code SF-AS, from DOI: 10.1111/j.2042-7158.1984.tb04385.x, PMID: 6145771. The conditions noted are these: pH 9.2.
The nature of series [45]: method code SF, from DOI: 10.1248/cpb.33.282, PMID: 4006019. The conditions noted are these: pH 1.0.

Turning to `CCOP(=O)(O)Cc1ccc(Cl)cc1`, the logD in series [1] was 1.6.
`CCOC(=O)c1ccccc1O` had a logP of 2.23.
As to `CC(C)Nc1nc(Cl)nc(NC2CC2)n1`, the logP in series [2] was found to be 3.06.
In series [3], `CCNc1nc(Cl)nc(NC(C)(C)C#N)n1` returned a logP of 2.18.
With `CCOc1ccccc1C(N)=O`, the logD in [4] turned out to be 1.34.
The compound `CCCc1ccc(N)cc1` came in with a pH-dependent lipophilicity (logD) in series [5] of 2.4.
Take `Clc1cc(Cl)cc(C2(CC(Cl)(Cl)Cl)CO2)c1` (stereo unspecified): in [6], the logP is 4.34.
Take `Oc1ccc2cccc(O)c2c1`: the logD in [7] is 1.94.
`CC(=O)c1ccc(NC(=O)N(C)N=O)cc1` yielded a logD in series [8] of 0.26.
For `O=c1ccn2c(n1)OC1C(O)C(CO)OC12` (stereo unspecified), the logD in [9] was -2.85.
Take `NC(=O)c1cn(Cc2c(F)cccc2F)nn1`: the logP in series [10] amounted to 0.88.
The compound `N=c1c2ncn([C@@H]3O[C@H](CO)C[C@@H]3F)c2ncn1O` returned a log distribution coefficient (logD) in series [11] of -1.38.
As to `Cc1ncc([N+](=O)[O-])n1Cc1cn(CCF)nn1`, in series [12], the logD is -0.38.
In series [13], `CCCOc1ccc(O)cc1` came in with a logP of 2.31.
As to `O=S(=O)(O)c1ccc(O)c2ccccc12`, the logP in series [14] is -0.44.
Take `Cc1ccc(C)c(O)c1C`: in [15], the logP was determined as 2.67.
The compound `CCOC(=O)c1ccc(N)cc1` came in with a logP in [16] of 1.87.
The compound `Cc1c(COC(CO)CF)[nH]c(=O)[nH]c1=O` (stereo unspecified) gave a log distribution coefficient (logD) in [17] of -0.87.
`CCCCc1ccncc1` returned a logP in [18] of 3.13.
On to `Cc1cc(C)c(N)cc1C`, for which the pH-dependent lipophilicity (logD) in series [19] came to 2.29.
Consider `C/C(=C\c1ccccc1)C(=O)O`, for which the pH-dependent lipophilicity (logD) in series [20] came out at 2.58.
In series [21], `c1ccc(Cn2cnnc2)cc1` registered a logP of 0.74.
With `O=C(O)/C=C/C(=O)c1ccccc1`, in [22], the logP was 1.53.
Take `CCCCCC(CCO)C1N=N1` (stereo unspecified): the logP in series [23] stood at 2.52.
Take `O=NN(CCCl)C(=O)N[C@@H]1O[C@H](CO)[C@@H](O)[C@H](O)[C@H]1O`: in series [24], the logP is -1.02.
Consider `COc1cc(O)cc(C(C)=O)c1`, for which the logP in [25] is 1.85.
The compound `Cc1cc(=O)oc2cc(O)ccc12` showed a logD in series [26] of 1.9.
Regarding `CCCOC(=O)C1(C)CCC=[N+]1[O-]` (stereo unspecified), the logP in series [27] was -0.3.
As for `Nc1ccc(S(=O)(=O)Nc2cnc(Cl)cn2)cc1`, the logP in [28] worked out at 0.25.
As to `COc1nc(C)nc(Cl)c1NC1=NCCN1`, the logP in series [29] stood at 1.08.
`CNC(=O)c1cc(N2CC2)c([N+](=O)[O-])cc1[N+](=O)[O-]` displayed a logD in [30] of 0.44.
In the case of `CCOP(=S)(OCC)Oc1nc(Cl)c(Cl)cc1Cl`, the logP in series [31] came to 4.77.
`ClC1(Cl)C2(Cl)C3(Cl)C4(Cl)C(Cl)(Cl)C5(Cl)C3(Cl)C1(Cl)C5(Cl)C24Cl` (stereo unspecified) displayed a logP in [32] of 6.69.
Turning to `CCCCOCCOCCSC#N`, in [33], the logP came to 1.68.
Take `CCOC(=O)c1ccc(O)cc1`: in series [34], the logP was determined as 2.25.
In the case of `Cc1cc2ccccc2[nH]1`, the logD in [35] was 2.53.
On to `CCC(CC)(C(=O)NC(N)=S)C(=O)OC`, for which the log distribution coefficient (logD) in series [36] turned out to be 1.82.
The compound `O=Nc1ccc2ccccc2c1O` yielded a pH-dependent lipophilicity (logD) in series [37] of 2.57.
Compound `CNC(=S)NCCCCc1c[nH]cn1` gave a logD in series [38] of 0.51.
Regarding `Cc1c(O)c(=O)ccn1C(C)C`, in series [39], the logD worked out at 0.05.
On to `O=C(O)CNC(=O)c1ccccc1O`, for which the logP in series [40] came to 0.95.
In series [41], `O=c1[nH]c(=O)n([C@H]2C=C[C@@H](CO)C2)cc1I` returned a logP of 0.29.
`ClC1=C(Cl)[C@]2(Cl)C3C(Cl)C(Cl)C(Cl)C3[C@@]1(Cl)C2(Cl)Cl` (stereo partly specified) returned a logP in series [42] of 6.22.
The compound `Cc1nc2ccccn2c(=O)c1C` came in with a pH-dependent lipophilicity (logD) in [43] of 1.14.
In series [44], `CNC(=S)NCCSCc1cncn1C` came in with a logD of 0.32.
Compound `CCCCCC(=O)N(C)CC(=O)O` yielded a logD in [45] of 1.14.
